Here are results for 2 molecules from publication PMC12381781, “Structural and functional insights into the selective inhibition of mutant tau aggregation by purpurin and oleocanthal in frontotemporal dementia” (Protein Science : A Publication of the Protein Society, 2025).

One assay concerns the target R2R3 (P301L) tau peptide (Homo sapiens, UniProt P10636, P618L). The assay can be described thus: ThT aggregation assay of monomeric R2R3 (P301L) peptide. The assay is classed as biochemical. The following applies: for ThT-stained aggregates, confocal imaging: R2R3 P301L, end of ThT assay. As for the experimental part:
The aggregation kinetics of tau peptides were monitored using a ThT assay. A 40 μL reaction mixture containing 15 μM ThT (Sigma‐Aldrich, Cat. # T3516‐5G) and 50 μM peptide in the absence (control) or presence of 0.1 μM, 1 μM, and 10 μM PUR or OLC was prepared on ice in aggregation buffer (20 mM Tris [pH 7.4], 100 mM NaCl, 1 mM ethylenediaminetetraacetic acid [EDTA]) containing 5 μM heparin (Sigma‐Aldrich, Cat. #H4784). dithiothreitol (DTT) was excluded to avoid its differential effects on the aggregation kinetics of tau peptides containing Cys291 or Cys322 and to prevent peroxide generation by redox‐active compounds like PUR, which can lead to oxidative artifacts and false‐positive inhibition signals, as reported in our previous study (Annadurai, Malina, Salmona, et al., [2022]). This mixture was then dispensed into a clear‐bottom, black 384‐well ViewPlate (Revvity, Waltham, MA, United States; Part # 6007460) and sealed with a TopSealA‐PLUS (Revvity) to prevent evaporation.
Aggregation was monitored using EnSpire Multimode Plate Reader (Revvity) at 37°C with constant agitation (1000 rpm). To minimize condensation, the upper heater temperature was set to 2°C higher than the lower heater temperature. ThT fluorescence (ThT—λ ex: 460–490 nm and λem: 500–550 nm) was recorded every 5–10 min for 48 h.
ThT fluorescence curves were fitted to a sigmoidal function in GraphPad Prism (version 10, San Diego, CA, USA) using the following equation:
Y=Top/1+expV50–X/Slope , where Y is the ThT fluorescence intensity, X is time (h), Top is the maximum fluorescence intensity, V50 is the time to reach 50% of Top, and Slope describes the steepness of the aggregation transition. Baseline fluorescence at the start of the measurements was relatively low across samples and was not separately fitted. In samples showing early increases in fluorescence, the aggregation trajectory was modeled directly without introducing an independent baseline parameter.
The V50 value obtained from each replicate was used as the aggregation t 1/2 for statistical analysis.
To evaluate the effect of compounds on the extent of aggregation, the AUC was calculated for each replicate ThT fluorescence curve using GraphPad Prism. AUC values were then normalized to the mean AUC of the untreated control group and expressed as “aggregation (% of control),” serving as an indirect and comparative measure of fibril formation.
Figure S11. Confocal imaging of ThT-stained aggregates formed in the presence of PUR and OLC (corresponding to Figure 3). At the end of the ThT aggregation assay, reaction mixtures containing WT or mutant R2R3 tau peptides (P301L, V287I, N279K), incubated in the absence (CTL) or presence of 10 µM PUR or OLC, were collected from assay wells, embedded in 0.05% low-melting agarose, and imaged. ThT fluorescence was acquired using a Yokogawa Cell Voyager 7000S high-content imaging system equipped with a 20× objective (Ex: 460–490 nm, Em: 500–550 nm) and analyzed with Signals Image Artist (Revvity). […] Scale bar: 20 μm.

Assay [1] relates to Tau RD P301S FRET Biosensor cells. The assay can be described thus: Biosensor cell seeding assay, post-transduction treatment. The conditions noted are these: for concentrations at which seeding was significantly reduced, post-transduction treatment: P301L fibrils transduced 24 h, then compound for 24 h; for seeding (CFP/YFP inclusions) after post-transduction treatment: WT fibrils transduced 24 h, then compound 0 to 10 μM for 24 h. In kind it is cell-based. As for the experimental part: To further evaluate whether PUR and OLC can suppress pathological tau propagation, we performed post‐transduction treatment assays in Tau RD P301S FRET Biosensor cells. WT or P301L tau fibrils were first transduced into cells for 24 h, followed by treatment with PUR or OLC for an additional 24 h. Prior MTS assays confirmed that these concentrations were non‐toxic to biosensor cells (Figure S16).
Tau peptides were aggregated with or without PUR or OLC in a 7.4 pH aggregation buffer without ThT. After 48 h, the contents of each well were pooled to a final total volume of 120 μL. The concentration of the pooled Aggregation Reaction Products was measured using the Pierce™ BCA Protein Assay Kit (Thermo Fisher Scientific Inc., Cat. # 23225). The reaction products were standardized for cell transduction to a final concentration of 100 nM for both control and drug‐treated samples. The pooled aggregation mixture was sonicated using a Branson Ultrasonic™ Sonifier Cup Horns (Marshall Scientific, Hampton, NH, USA) at 30% amplitude (15 s ON and 15 s OFF for 1 min) to fragment larger aggregates into smaller ones, facilitating consistent transduction.
Tau RD P301S FRET Biosensor cells were plated at 5 × 10^3 cells per well in PhenoPlate 384‐well, black, optically clear flat‐bottom plates (Revvity; Part # 6057302) pre‐coated with 50 μg/mL Poly‐ᴅ‐Lysine (Sigma‐Aldrich, Cat. # P6407). After plating, cells were incubated for 30 min at room temperature to promote better cell spreading before returning the plates to the incubator.
The next day, cells were transduced with 100 nM of aggregation mixture, which were either: (i) prepared in the absence (control) or presence of 10 μM PUR or OLC for co‐aggregation studies (Figure 5), or (ii) prepared exclusively in the absence of compounds for post‐transduction treatment studies (Figure 6). The aggregation mixtures were premixed with 0.2 μL per well TurboFect™ Transfection Reagent (Thermo Fisher Scientific Inc., Cat. # R0533) in 10 μL Opti‐MEM™ (Thermo Fisher Scientific Inc., Cat. #11058021) and added to cells.
For co‐aggregation studies (Figure 5), cells were cultured for 48 h after transduction before processing for imaging. […]
Cells were imaged on a Cell Voyager 7000S high‐content imaging system (Yokogawa, Tokyo, Japan) with a 20× objective. CFP/YFP inclusions of seeded tau were detected using a 488 nm laser line (Ex = 460–490 nm, Em = 500–550 nm), and Hoechst‐stained nuclei were detected using a 405 nm laser line (Ex = 360–400 nm, Em = 410–480 nm). […] Image analysis was performed using Signals Image Artist (Revvity) to quantify the number of cells (Hoechst‐stained nuclei) and intracellular CFP/YFP inclusions. […]

Some results are limits rather than exact numbers.

R2R3 (P301L) tau peptide, sequence (P10636 592-653 P618L): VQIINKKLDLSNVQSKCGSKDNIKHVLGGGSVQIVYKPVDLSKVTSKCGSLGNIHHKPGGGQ

For the molecule `C/C=C(/C=O)[C@@H](CC=O)CC(=O)OCCc1ccc(O)cc1` [OLC, oleocanthal], the “aggregation (% of control), AUC of ThT fluorescence” value at R2R3 (P301L) tau peptide (R2R3 P301L 50 μM, compound 0.1 μM) was found to be 8%. At R2R3 (P301L) tau peptide (R2R3 P301L 50 μM, compound 10 μM), the “aggregation (% of control), AUC of ThT fluorescence” value was “below 10%”. Also, the “ThT-stained aggregates, confocal imaging” value at R2R3 (P301L) tau peptide (compound 10 μM) was “marked reduction in ThT signal”. In assay [1], the “concentrations at which seeding was significantly reduced, post-transduction treatment” value is at least 1.25 µM and the “seeding (CFP/YFP inclusions) after post-transduction treatment” value was “significantly reduced seeding at all tested concentrations”.
With `O=C1c2ccccc2C(=O)c2c(O)c(O)cc(O)c21` [PUR, purpurin], the remaining activity at 0.1 µM on R2R3 (P301L) tau peptide (R2R3 P301L 50 μM, compound 0.1 μM, read-out: aggregation (% of control), AUC of ThT fluorescence) came out at 47%. Besides, on R2R3 (P301L) tau peptide (R2R3 P301L 50 μM, compound 10 μM, read-out: aggregation (% of control), AUC of ThT fluorescence), the remaining activity at 10 µM is below 10%. Besides, at R2R3 (P301L) tau peptide (compound 10 μM), the “ThT-stained aggregates, confocal imaging” value is given as “marked reduction in ThT signal”. In assay [1], the “concentrations at which seeding was significantly reduced, post-transduction treatment” value was at least 1.25 µM and the “seeding (CFP/YFP inclusions) after post-transduction treatment” value was “significantly reduced seeding at all tested concentrations”.
